According to paper PMC4433267, “Corosolic Acid Inhibits Hepatocellular Carcinoma Cell Migration by Targeting the VEGFR2/Src/FAK Pathway” (PLoS ONE, 2015):

Target: VEGFR2 (KDR) (Homo sapiens, UniProt P35968)
Test: ADP-Glo kinase assay with purified KDR (Promega V2681), […] ATP
Format: biochemical

Sequence of VEGFR2 (KDR) (P35968 20-1356): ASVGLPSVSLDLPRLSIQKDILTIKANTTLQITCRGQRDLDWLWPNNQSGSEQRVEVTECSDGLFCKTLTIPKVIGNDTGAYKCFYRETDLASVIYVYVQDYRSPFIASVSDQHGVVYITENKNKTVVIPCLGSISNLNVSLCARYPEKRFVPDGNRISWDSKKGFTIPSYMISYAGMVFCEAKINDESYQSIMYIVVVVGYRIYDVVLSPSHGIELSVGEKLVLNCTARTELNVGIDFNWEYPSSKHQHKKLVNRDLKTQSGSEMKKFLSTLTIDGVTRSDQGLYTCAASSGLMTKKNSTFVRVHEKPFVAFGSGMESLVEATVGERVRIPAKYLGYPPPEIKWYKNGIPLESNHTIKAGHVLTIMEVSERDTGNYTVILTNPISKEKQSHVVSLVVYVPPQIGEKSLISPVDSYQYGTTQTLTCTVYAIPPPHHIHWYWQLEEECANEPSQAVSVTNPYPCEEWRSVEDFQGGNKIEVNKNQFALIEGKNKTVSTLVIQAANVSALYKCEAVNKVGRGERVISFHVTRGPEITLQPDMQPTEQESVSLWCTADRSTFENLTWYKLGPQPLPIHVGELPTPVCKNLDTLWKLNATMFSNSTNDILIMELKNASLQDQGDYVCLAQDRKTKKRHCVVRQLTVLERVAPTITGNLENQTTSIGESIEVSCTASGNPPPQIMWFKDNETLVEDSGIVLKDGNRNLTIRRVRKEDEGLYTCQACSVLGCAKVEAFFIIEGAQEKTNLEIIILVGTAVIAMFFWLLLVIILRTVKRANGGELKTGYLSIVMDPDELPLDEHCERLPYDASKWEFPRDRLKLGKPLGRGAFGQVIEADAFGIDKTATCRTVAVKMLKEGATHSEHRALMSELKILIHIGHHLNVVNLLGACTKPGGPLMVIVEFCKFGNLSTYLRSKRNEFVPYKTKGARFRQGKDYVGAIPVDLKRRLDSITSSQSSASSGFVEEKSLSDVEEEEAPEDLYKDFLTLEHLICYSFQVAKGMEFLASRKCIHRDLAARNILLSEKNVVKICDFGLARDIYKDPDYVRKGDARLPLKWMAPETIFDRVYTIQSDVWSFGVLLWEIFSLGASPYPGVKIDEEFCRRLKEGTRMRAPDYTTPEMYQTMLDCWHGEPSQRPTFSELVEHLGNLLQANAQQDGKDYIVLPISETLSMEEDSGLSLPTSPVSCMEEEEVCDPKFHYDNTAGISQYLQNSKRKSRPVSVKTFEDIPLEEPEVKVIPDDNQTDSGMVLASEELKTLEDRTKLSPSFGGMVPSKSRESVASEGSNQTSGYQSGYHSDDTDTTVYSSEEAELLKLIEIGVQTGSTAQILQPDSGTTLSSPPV

Compound: C[C@H]1[C@H](C)CC[C@]2(C(=O)O)CC[C@]3(C)C(=CC[C@@H]4[C@@]5(C)C[C@@H](O)[C@H](O)C(C)(C)[C@@H]5CC[C@]43C)[C@H]12 [CA, corosolic acid]
- IC50: 950 nM
